Experimental data taken from ChEMBL document CHEMBL5154738, “Design, synthesis and structural-activity relationship studies of phanginin A derivatives for regulating SIK1-cAMP/CREB signaling to suppress hepatic gluconeogenesis” (Eur J Med Chem, 2022).
The source made the active and inactive calls. The rule behind the calls is not given here.

Columns and labels:
[1] = Inhibition of gluconeogenesis in C57BL/6J mouse primary hepatocytes assessed as inhibition of glucagon-stimulated glucose production at 0.5 mM preincubated for 1.5 hrs followed by lactate and pyruvate addition and later stimulated with glucagon for 4 hrs; type: functional; details: Hepatocyte, 5.5 h
[2] = target: Serine/threonine-protein kinase SIK1 (Mus musculus) (UniProt Q60670); assay: Activation of SIK1 in C57BL/6J mouse primary hepatocytes assessed as decrease in CREB phosphorylation at 2.5 to 10 uM incubated for 2 hrs by western blot analysis; type: cell-based; details: Primary hepatocyte, filed as activator, dose 2.5-10 µM, DDE = dose-dependent effect
Mus musculus [3] = assay: Anti-hyperglycemic activity in ob/ob mouse assessed as reduction in fasting blood glucose level at 100 mg/kg, po administered once daily and measured after 21 days relative to control; type: functional; details: 504 h, time 21 day
Mus musculus [4] = assay: Anti-hyperglycemic activity in ob/ob mouse assessed as reduction in fasting blood glucose level at 100 mg/kg, po administered once daily and measured after 4 days relative to control; type: functional; details: 96 h, time 4 day
[5] = Cytotoxicity against C57BL/6J mouse primary hepatocytes assessed as cell viability at 10 uM incubated for 24 hrs by MTT assay relative to control; type: toxicity, cell-based, Hepatocyte; details: read-out: Activity
[6] = target: Serine/threonine-protein kinase SIK1 (Mus musculus) (UniProt Q60670); assay: Activation of SIK1 in C57BL/6J mouse primary hepatocytes assessed as decrease in glucagon-stimulated CREB phosphorylation at 2.5 to 10 uM incubated for 2 hrs by western blot analysis; type: cell-based; details: Primary hepatocyte, filed as activator, dose 2.5-10 µM, DDE = dose-dependent effect
Mus musculus [7] = assay: In vivo activation of SIK1 in ob/ob mouse assessed as increase in SIK1 phosphorylation at Thr182 residue in liver at 100 mg/kg, po administered once daily for 21 days by western blot analysis; type: functional, organism-based; details: time 21.0 day
Mus musculus [8] = assay: Anti-hyperlipidemic activity in ob/ob mouse assessed as reduction in serum triglyceride level at 100 mg/kg, po administered once daily for 21 days; type: functional, organism-based; details: time 21.0 day
[9] = Inhibition of gluconeogenesis in C57BL/6J mouse primary hepatocytes assessed as inhibition of glucagon-stimulated glucose production at 5 uM preincubated for 1.5 hrs followed by lactate and pyruvate addition and later stimulated with glucagon for 4 hrs; type: functional; details: Hepatocyte, time 5.5 hrs
[10] = Cytotoxicity against C57BL/6J mouse primary hepatocytes assessed as cell viability at 100 uM incubated for 24 hrs by MTT assay relative to control; type: toxicity, cell-based, Hepatocyte; details: read-out: Activity
[11] = Cytotoxicity against C57BL/6J mouse primary hepatocytes assessed as cell viability at 50 uM incubated for 24 hrs by MTT assay relative to control; type: toxicity, cell-based, Hepatocyte; details: read-out: Activity
Mus musculus [12] = assay: In vivo activation of SIK1 in ob/ob mouse assessed as decrease in CREB phosphorylation in liver at 100 mg/kg, po administered once daily for 21 days by western blot analysis; type: functional, organism-based; details: time 21.0 day
Mus musculus [13] = assay: Anti-hyperlipidemic activity in ob/ob mouse assessed as reduction in total cholesterol level in serum at 100 mg/kg, po administered once daily for 21 days; type: functional, organism-based; details: time 21.0 day
Mus musculus [14] = assay: Anti-hyperglycemic activity in ob/ob mouse assessed as reduction in non-fasting blood glucose level at 100 mg/kg, po administered once daily and measured after 21 days relative to control; type: functional; details: 504 h, time 21 day
[15] = Inhibition of gluconeogenesis in C57BL/6J mouse primary hepatocytes assessed as inhibition of glucagon-stimulated glucose production at 10 uM preincubated for 1.5 hrs followed by lactate and pyruvate addition and later stimulated with glucagon for 4 hrs; type: functional; details: Hepatocyte, time 5.5 hrs
Hepatocyte [16] = assay: Inhibition of gluconeogenesis in C57BL/6J mouse primary hepatocytes assessed as inhibition of glucagon-stimulated glucose production preincubated for 1.5 hrs followed by lactate and pyruvate addition and later stimulated with glucagon for 4 hrs; type: functional, cell-based; details: dose 2.5-10 µM, time 5.5 hrs, DDE = dose-dependent effect
Hepatocyte [17] = assay: Inhibition of gluconeogenesis in C57BL/6J mouse primary hepatocytes assessed as inhibition of glucose production preincubated for 1.5 hrs followed by lactate and pyruvate addition; type: functional, cell-based; details: dose 2.5-10 µM, DDE = dose-dependent effect
[18] = Cytotoxicity against C57BL/6J mouse primary hepatocytes assessed as cell viability at 20 uM incubated for 24 hrs by MTT assay relative to control; type: toxicity, cell-based, Hepatocyte; details: read-out: Activity
Mus musculus [19] = assay: Anti-hyperglycemic activity in ob/ob mouse assessed as reduction in non-fasting blood glucose level at 100 mg/kg, po administered once daily and measured after 8 days relative to control; type: functional; details: 192 h, time 8 day
[20] = Cytotoxicity against C57BL/6J mouse primary hepatocytes assessed as cell viability at 200 uM incubated for 24 hrs by MTT assay relative to control; type: toxicity, cell-based, Hepatocyte; details: read-out: Activity
[21] = target: Serine/threonine-protein kinase SIK1 (Mus musculus) (UniProt Q60670); assay: Activation of SIK1 in C57BL/6J mouse primary hepatocytes assessed as increase in SIK1 phosphorylation at Thr182 residue measured after 2 hrs by western blot analysis; type: cell-based; details: Primary hepatocyte, filed as activator, dose 2.5-10 µM, DDE = dose-dependent effect
[22] = target: Serine/threonine-protein kinase SIK1 (Mus musculus) (UniProt Q60670); assay: Activation of SIK1 in C57BL/6J mouse primary hepatocytes assessed as decrease in glucagon-stimulated intracellular cAMP accumulation by ELISA; type: cell-based; details: Primary hepatocyte, filed as activator, dose 2.5-10 µM, DDE = dose-dependent effect
[23] = Inhibition of gluconeogenesis in C57BL/6J mouse primary hepatocytes assessed as inhibition of glucagon-stimulated glucose production at 2.5 uM preincubated for 1.5 hrs followed by lactate and pyruvate addition and later stimulated with glucagon for 4 hrs; type: functional; details: Hepatocyte, time 5.5 hrs
Mus musculus [24] = assay: Acute hypoglycemic activity in type 2 diabetic ob/ob mouse assessed as reduction in fasting blood glucose level at 100 mg/kg, po administered as single dose and measured for 10 hrs; type: functional, organism-based

Serine/threonine-protein kinase SIK1 (Mus musculus), sequence (Q60670 whole entry): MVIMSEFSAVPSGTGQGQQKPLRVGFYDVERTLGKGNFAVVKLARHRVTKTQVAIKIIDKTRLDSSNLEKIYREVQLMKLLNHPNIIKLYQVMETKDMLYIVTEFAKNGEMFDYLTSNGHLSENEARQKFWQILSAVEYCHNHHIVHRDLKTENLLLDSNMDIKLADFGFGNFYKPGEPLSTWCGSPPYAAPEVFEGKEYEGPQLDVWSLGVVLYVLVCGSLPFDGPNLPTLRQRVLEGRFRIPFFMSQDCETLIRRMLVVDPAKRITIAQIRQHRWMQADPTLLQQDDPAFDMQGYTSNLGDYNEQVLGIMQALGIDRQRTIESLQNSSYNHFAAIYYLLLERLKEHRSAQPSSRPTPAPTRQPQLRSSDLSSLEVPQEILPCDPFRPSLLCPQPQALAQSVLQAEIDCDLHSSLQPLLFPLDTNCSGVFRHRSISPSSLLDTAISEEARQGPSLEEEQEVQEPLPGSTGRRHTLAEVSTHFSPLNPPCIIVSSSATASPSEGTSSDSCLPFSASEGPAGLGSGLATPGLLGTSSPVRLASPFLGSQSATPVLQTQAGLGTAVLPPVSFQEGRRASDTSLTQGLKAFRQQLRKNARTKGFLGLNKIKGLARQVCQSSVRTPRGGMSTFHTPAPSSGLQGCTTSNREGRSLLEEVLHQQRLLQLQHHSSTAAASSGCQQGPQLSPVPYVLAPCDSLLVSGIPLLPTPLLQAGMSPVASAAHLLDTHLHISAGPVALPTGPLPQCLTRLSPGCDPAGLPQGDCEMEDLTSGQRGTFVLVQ

For `CN(C)C(=N)NC(=N)N` [METFORMIN], the inhibition at 500 µM [1] was 51.5%.

With `COC(=O)[C@@]12CCCC3([C@H](OCCO)OC1)[C@H]2CC[C@H]1[C@@H](C)c2ccoc2C[C@@H]13` the Activity [2] was “Dde”, the inhibition in vivo at 100 mg/kg (Mus musculus [3]) was 41.2% and the inhibition in vivo at 100 mg/kg (Mus musculus [4]) was 32.3%. For the same molecule, the viability at 24 h, 10 µM [5] was 98.4%, the Activity [6] was “Dde” and the Activity (Mus musculus [7]) was “Active”. The Activity (Mus musculus [8]) was “Active”, the inhibition at 5 µM [9] was 79.6% and the viability at 24 h, 100 µM [10] was 11.1%. For the same molecule, the viability at 24 h, 50 µM [11] was 90.1%, the Activity (Mus musculus [12]) was “Active” and the Activity (Mus musculus [13]) was “Active”. For the same molecule, the inhibition in vivo at 100 mg/kg (Mus musculus [14]) was 37.6%, the inhibition at 10 µM [15] was 91.4% and the inhibition (Hepatocyte [16]) was “Dde”. For the same molecule, the inhibition (Hepatocyte [17]) was “Dde”, the viability at 24 h, 20 µM [18] was 86.1% and the inhibition in vivo at 100 mg/kg (Mus musculus [19]) was 41.1%. The viability at 24 h, 200 µM [20] was 9.2%, the Activity [21] was “Dde” and the Activity [22] was “Dde”. The inhibition at 2.5 µM [23] was 53.4% and the Activity (Mus musculus [24]) was “Active”.
